Tests used:
[1] = test system: HCV genotype 1a (H77 strain) replicon in HUH-7 cells; experiment: HCV replicon luciferase reporter assay, genotype 1a; format: cell-based; conditions: Hepatitis C virus, Huh-7, 72 h, HCV genotype 1a replicon luciferase, 3 days incubation, read-out: LE_1a (EC50, range)
In short: (§1)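 Replicon inhibition for both genotypes was measured as Renilla luciferase signal (EnduRen, 7.5 μM final, 2 h) after 3-day, 37° C exposure of replicon-bearing HUH-7 cells in 4% FCS DMEM, 0.5% DMSO. The 1b construct carries S1179I; the 1a H77 construct carries P1496L and S2204I. Twenty-point, 3-fold dilutions were fitted four-parametrically for EC50, and CC50 was taken from multiplexed Cell Titer-Blue.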

[2] = test system: HCV genotype 1b (Con1) replicon in HUH-7 cells; experiment: HCV replicon luciferase reporter assay, genotype 1b; format: cell-based; conditions: Hepatitis C virus, Huh-7, 72 h, HCV genotype 1b replicon luciferase, 3 days incubation, read-out: LE_1b (EC50, range)
In short: as §1

## COc1ccc2c(O[C@@H]3C[C@H]4C(=O)N[C@]5(C(=O)NS(=O)(=O)C6(C)CC6)C[C@H]5/C=C\CC[C@@H](C)C[C@@H](C)[C@H](NC(=O)OC(C)(C)C(F)(F)F)C(=O)N4C3)nc(-c3ccc(N4CCOCC4)cc3)cc2c1 [Compound 5199, 1,1,1-trifluoro-2-methylpropan-2-yl((2R,6S,7R,9R,13aS,14aR,16aS,Z)-2-((6-methoxy-3-(4-morpholinophenyl)isoquinolin-1-yl)oxy)-7,9-dimethyl-14a-(((1-methylcyclopropyl)sulfonyl)carbamoyl)-5,16-dioxo-1,2,3,5,6,7,8,9,10,11,13a,14,14a,15,16,16a-hexadecahydrocyclopropa[e]pyrrolo[1,2-a][1,4]diazacyclopentadecin-6-yl)carbamate]
[1]
  EC50: < 5.46 nM
[2]
  EC50: < 5.46 nM

## COc1ccc2c(O[C@@H]3C[C@H]4C(=O)N[C@]5(C(=O)NS(=O)(=O)C6CC6)C[C@H]5/C=C\CC[C@H](C)C[C@@H](C)[C@H](NC(=O)OC(C)(C)C)C(=O)N4C3)nc(-c3ccc(OC(C)C)cn3)cc2c1 [Compound 5200, tert-butyl ((2R,6S,7R,9S,13aS,14aR,16aS,Z)-14a-((cyclopropylsulfonyl)carbamoyl)-2-((3-(5-isopropoxypyridin-2-yl)-6-methoxyisoquinolin-1-yl)oxy)-7,9-dimethyl-5,16-dioxo-1,2,3,5,6,7,8,9,10,11,13a,14,14a,15,16,16a-hexadecahydrocyclopropa[e]pyrrolo[1,2-a][1,4]diazacyclopentadecin-6-yl)carbamate]
[1]
  EC50: < 5.46 nM
[2]
  EC50: < 5.46 nM

## COc1ccc2c(O[C@@H]3C[C@H]4C(=O)N[C@]5(C(=O)NS(=O)(=O)C6CC6)C[C@H]5/C=C\CC[C@@H](C)C[C@@H](C)[C@H](NC(=O)OC(C)(C)C)C(=O)N4C3)nc(-c3ccc(OC(C)C)cn3)cc2c1 [Compound 5201, tert-butyl ((2R,6S,7R,9R,13aS,14aR,16aS,Z)-14a-((cyclopropylsulfonyl)carbamoyl)-2-((3-(5-isopropoxypyridin-2-yl)-6-methoxyisoquinolin-1-yl)oxy)-7,9-dimethyl-5,16-dioxo-1,2,3,5,6,7,8,9,10,11,13a,14,14a,15,16,16a-hexadecahydrocyclopropa[e]pyrrolo[1,2-a][1,4]diazacyclopentadecin-6-yl)carbamate]
[1]
  EC50: < 5.46 nM
[2]
  EC50: < 5.46 nM

## COc1ccc2c(O[C@@H]3C[C@H]4C(=O)N[C@]5(C(=O)NS(=O)(=O)C6CC6)C[C@H]5/C=C\CC[C@H](C)C[C@@H](C)[C@H](NC(=O)OC(C)(C)C(F)(F)F)C(=O)N4C3)nc(-c3ccc(OC(C)C)cn3)cc2c1 [Compound 5202, 1,1,1-trifluoro-2-methylpropan-2-yl((2R,6S,7R,9S,13aS,14aR,16aS,Z)-14a-((cyclopropylsulfonyl)carbamoyl)-2-((3-(5-isopropoxypyridin-2-yl)-6-methoxyisoquinolin-1-yl)oxy)-7,9-dimethyl-5,16-dioxo-1,2,3,5,6,7,8,9,10,11,13a,14,14a,15,16,16a-hexadecahydrocyclopropa[e]pyrrolo[1,2-a][1,4]diazacyclopentadecin-6-yl)carbamate]
[1]
  EC50: < 5.46 nM
[2]
  EC50: < 5.46 nM

## COc1ccc2c(O[C@@H]3C[C@H]4C(=O)N[C@]5(C(=O)NS(=O)(=O)C6CC6)C[C@H]5/C=C\CC[C@@H](C)C[C@@H](C)[C@H](NC(=O)OC(C)(C)C(F)(F)F)C(=O)N4C3)nc(-c3ccc(OC(C)C)cn3)cc2c1 [Compound 5203, 1,1,1-trifluoro-2-methylpropan-2-yl((2R,6S,7R,9R,13aS,14aR,16aS,Z)-14a-((cyclopropylsulfonyl)carbamoyl)-2-((3-(5-isopropoxypyridin-2-yl)-6-methoxyisoquinolin-1-yl)oxy)-7,9-dimethyl-5,16-dioxo-1,2,3,5,6,7,8,9,10,11,13a,14,14a,15,16,16a-hexadecahydrocyclopropa[e]pyrrolo[1,2-a][1,4]diazacyclopentadecin-6-yl)carbamate]
[1]
  EC50: < 5.46 nM
[2]
  EC50: < 5.46 nM

## [2H]C([2H])([2H])C(OC(=O)N[C@@H]1C(=O)N2C[C@H](Oc3nc(-c4ccc(OC(C)C)cn4)cc4cc(OC)ccc34)C[C@H]2C(=O)N[C@]2(C(=O)NS(=O)(=O)C3CC3)C[C@H]2/C=C\CC[C@H](C)C[C@H]1C)(C([2H])([2H])[2H])C(F)(F)F [Compound 5204, 1,1,1,3,3,3-hexadeutero-2-(trifluoromethyl)propan-2-yl((2R,6S,7R,9S,13aS,14aR,16aS,Z)-14a-((cyclopropylsulfonyl)carbamoyl)-2-((3-(5-isopropoxypyridin-2-yl)-6-methoxyisoquinolin-1-yl)oxy)-7,9-dimethyl-5,16-dioxo-1,2,3,5,6,7,8,9,10,11,13a,14,14a,15,16,16a-hexadecahydrocyclopropa[e]pyrrolo[1,2-a][1,4]diazacyclopentadecin-6-yl)carbamate]
[1]
  EC50: < 5.46 nM
[2]
  EC50: < 5.46 nM

## [2H]C([2H])([2H])C(OC(=O)N[C@@H]1C(=O)N2C[C@H](Oc3nc(-c4ccc(OC(C)C)cn4)cc4cc(OC)ccc34)C[C@H]2C(=O)N[C@]2(C(=O)NS(=O)(=O)C3CC3)C[C@H]2/C=C\CC[C@@H](C)C[C@H]1C)(C([2H])([2H])[2H])C(F)(F)F [Compound 5205, 1,1,1,3,3,3-hexadeutero-2-(trifluoromethyl)propan-2-yl((2R,6S,7R,9R,13aS,14aR,16aS,Z)-14a-((cyclopropylsulfonyl)carbamoyl)-2-((3-(5-isopropoxypyridin-2-yl)-6-methoxyisoquinolin-1-yl)oxy)-7,9-dimethyl-5,16-dioxo-1,2,3,5,6,7,8,9,10,11,13a,14,14a,15,16,16a-hexadecahydrocyclopropa[e]pyrrolo[1,2-a][1,4]diazacyclopentadecin-6-yl)carbamate]
[1]
  EC50: < 5.46 nM
[2]
  EC50: < 5.46 nM

## COc1ccc2c(O[C@@H]3C[C@H]4C(=O)N[C@]5(C(=O)NS(=O)(=O)C6CC6)C[C@H]5/C=C\CC[C@H](C)C[C@@H](C)[C@H](NC(=O)O[C@H](C)C(F)(F)F)C(=O)N4C3)nc(-c3ccc(OC(C)C)cn3)cc2c1 [Compound 5206, (R)-1,1,1-trifluoropropan-2-yl ((2R,6S,7R,9S,13aS,14aR,16aS,Z)-14a-((cyclopropylsulfonyl)carbamoyl)-2-((3-(5-isopropoxypyridin-2-yl)-6-methoxyisoquinolin-1-yl)oxy)-7,9-dimethyl-5,16-dioxo-1,2,3,5,6,7,8,9,10,11,13a,14,14a,15,16,16a-hexadecahydrocyclopropa[e]pyrrolo[1,2-a][1,4]diazacyclopentadecin-6-yl)carbamate]
[1]
  EC50: < 5.46 nM
[2]
  EC50: < 5.46 nM

## COc1ccc2c(O[C@@H]3C[C@H]4C(=O)N[C@]5(C(=O)NS(=O)(=O)C6CC6)C[C@H]5/C=C\CC[C@@H](C)C[C@@H](C)[C@H](NC(=O)O[C@H](C)C(F)(F)F)C(=O)N4C3)nc(-c3ccc(OC(C)C)cn3)cc2c1 [Compound 5207, (R)-1,1,1-trifluoropropan-2-yl ((2R,6S,7R,9R,13aS,14aR,16aS,Z)-14a-((cyclopropylsulfonyl)carbamoyl)-2-((3-(5-isopropoxypyridin-2-yl)-6-methoxyisoquinolin-1-yl)oxy)-7,9-dimethyl-5,16-dioxo-1,2,3,5,6,7,8,9,10,11,13a,14,14a,15,16,16a-hexadecahydrocyclopropa[e]pyrrolo[1,2-a][1,4]diazacyclopentadecin-6-yl)carbamate]
[1]
  EC50: < 5.46 nM
[2]
  EC50: < 5.46 nM

## COc1ccc2c(O[C@@H]3C[C@H]4C(=O)N[C@]5(C(=O)NS(=O)(=O)C6CC6)C[C@H]5/C=C\CC[C@H](C)C[C@@H](C)[C@H](NC(=O)OC5C[C@@H]6C[C@@H]6C5)C(=O)N4C3)nc(-c3ccc(OC(C)C)cn3)cc2c1 (stereo partly drawn) [Compound 5208, (1R,3r,5S)-bicyclo[3.1.0]hexan-3-yl((2R,6S,7R,9S,13aS,14aR,16aS,Z)-14a-((cyclopropylsulfonyl)carbamoyl)-2-((3-(5-isopropoxypyridin-2-yl)-6-methoxyisoquinolin-1-yl)oxy)-7,9-dimethyl-5,16-dioxo-1,2,3,5,6,7,8,9,10,11,13a,14,14a,15,16,16a-hexadecahydrocyclopropa[e]pyrrolo[1,2-a][1,4]diazacyclopentadecin-6-yl)carbamate]
[1]
  EC50: < 5.46 nM
[2]
  EC50: < 5.46 nM

## COc1ccc2c(O[C@@H]3C[C@H]4C(=O)N[C@]5(C(=O)NS(=O)(=O)C6CC6)C[C@H]5/C=C\CC[C@@H](C)C[C@@H](C)[C@H](NC(=O)OC5C[C@@H]6C[C@@H]6C5)C(=O)N4C3)nc(-c3ccc(OC(C)C)cn3)cc2c1 (stereo partly drawn) [Compound 5209, (1R,3r,5S)-bicyclo[3.1.0]hexan-3-yl((2R,6S,7R,9R,13aS,14aR,16aS,Z)-14a-((cyclopropylsulfonyl)carbamoyl)-2-((3-(5-isopropoxypyridin-2-yl)-6-methoxyisoquinolin-1-yl)oxy)-7,9-dimethyl-5,16-dioxo-1,2,3,5,6,7,8,9,10,11,13a,14,14a,15,16,16a-hexadecahydrocyclopropa[e]pyrrolo[1,2-a][1,4]diazacyclopentadecin-6-yl)carbamate]
[1]
  EC50: < 5.46 nM
[2]
  EC50: < 5.46 nM

## COc1ccc2c(O[C@@H]3C[C@H]4C(=O)N[C@]5(C(=O)NS(=O)(=O)C6CC6)C[C@H]5/C=C\CC[C@H](C)C[C@@H](C)[C@H](NC(=O)NC(C)(C)C)C(=O)N4C3)nc(-c3ccc(OC(C)C)cn3)cc2c1 [Compound 5210, (2R,6S,7R,9S,13aS,14aR,16aS,Z)-6-(3-(tert-butyl)ureido)-N-(cyclopropylsulfonyl)-2-((3-(5-isopropoxypyridin-2-yl)-6-methoxyisoquinolin-1-yl)oxy)-7,9-dimethyl-5,16-dioxo-1,2,3,5,6,7,8,9,10,11,13a,14,14a,15,16,16a-hexadecahydrocyclopropa[e]pyrrolo[1,2-a][1,4]diazacyclopentadecine-14a-carboxamide]
[1]
  EC50: < 5.46 nM
[2]
  EC50: < 5.46 nM

From US9499550B2 (BRISTOL-MYERS SQUIBB COMPANY, priority 2012, dated 2016)
